Measured values published in patent US20100152434A1, “Protein Kinase-binding Nucleosides and Associated Methods” (priority 2007, published 2010).
pIC50: −log10 of the molar value. Read-outs that look alike come from different tables or passages of the source.

Assays:
UACC-257 [1] = assay: cells; conditions: Homo sapiens, UACC-257
SK-OV-3 = assay: cells; conditions: Homo sapiens, SK-OV-3
NCI-H460 [2] = assay: cells; conditions: Homo sapiens, NCI-H460
LOX IMVI = assay: cells; conditions: Homo sapiens
DU-145 = assay: cells; conditions: Homo sapiens, DU-145
MDA-MB-435 = MDA-MB-435 (Melanoma panel)
M14 = assay: cells; conditions: Homo sapiens, M14
UACC-257 [3] = test system: UACC-257
OVCAR-5 [4] = test system: OVCAR-5
788-0 = conditions: 786-0
HOP-92 [5] = assay: cells; conditions: Homo sapiens, HOP-92
SF-268 = assay: cells; conditions: Homo sapiens, SF-268
NCI-H460 [6] = test system: NCI-H460
A549/ATCC = assay: cells; conditions: Homo sapiens, A549
OVCAR-5 [7] = assay: cells; conditions: Homo sapiens, OVCAR-5
HOP-92 [8] = test system: HOP-92
COLO 205 = assay: cells; conditions: Homo sapiens, COLO 205
NCI/ADR-RES = NCI/ADR-RES (Ovarian Cancer panel)
CAKI-1 = assay: cells; conditions: Homo sapiens, CAKI-1
[9] = Log10 Concentration −4.0, Molar
[10] = Log10 Concentration −5.0, Molar
[11] = Log10 Concentration −6.0, Molar
[12] = Log10 Concentration −7.0, Molar
[13] = Log10 Concentration −8.0, Molar

SMILES: CNC(=O)NC[C@H]1O[C@@H](n2cnc3c(NC(=O)Nc4ccccc4)ncnc32)C(O[Si](C)(C)C(C)(C)C)[C@H]1O[Si](C)(C)C(C)(C)C (stereo partly drawn) [Compound 25, 2′,3′-Bis-O-(tert-butyldimethylsilyl)-5-deoxy-5′-[(N-methylcarbamoyl)amino]-N^6-(N-phenylcarbamoyl)adenosine]
- TGI (NCI-H322M): >1.00E−4 Molar
- Percent Growth (NCI-H322M; Log10 Concentration −4.0 Molar): 21%
- Percent Growth (NCI-H322M; Log10 Concentration −5.0 Molar): 39%
- Percent Growth (NCI-H322M; Log10 Concentration −6.0 Molar): 105%
- Percent Growth (NCI-H322M; Log10 Concentration −7.0 Molar): 106%
- Percent Growth (NCI-H322M; Log10 Concentration −8.0 Molar): 102%
- GI50 (UACC-257 [1]): 3.78 µM
- pIC50 (UACC-257 [1]): < 4.00
- GI50 (SK-OV-3): 5.88 µM
- pIC50 (SK-OV-3): < 4.00
- TGI (SN12C): 3.38E−6 Molar
- Percent Growth (SN12C; [9]): −90%
- Percent Growth (SN12C; [10]): −87%
- Percent Growth (SN12C; [11]): 98%
- Percent Growth (SN12C; [12]): 100%
- Percent Growth (SN12C; [13]): 100%
- TGI (RPMI-8226): >1.00E−4 Molar
- Percent Growth (RPMI-8226; [9]): 4%
- Percent Growth (RPMI-8226; [10]): 5%
- Percent Growth (RPMI-8226; [11]): 98%
- Percent Growth (RPMI-8226; [12]): 98%
- Percent Growth (RPMI-8226; [13]): 102%
- GI50 (NCI-H460 [2]): 1.72 µM
- pIC50 (NCI-H460 [2]): 5.15
- GI50 (LOX IMVI): 1.82 µM
- pIC50 (LOX IMVI): 4.21
- GI50 (DU-145): 2.59 µM
- pIC50 (DU-145): 4.73
- TGI (MDA-MB-435): 2.91E−5 Molar
- Percent Growth (MDA-MB-435; Log10 Concentration −4.0 Molar): −10%
- Percent Growth (MDA-MB-435; Log10 Concentration −5.0 Molar): 9%
- Percent Growth (MDA-MB-435; Log10 Concentration −6.0 Molar): 97%
- Percent Growth (MDA-MB-435; Log10 Concentration −7.0 Molar): 102%
- Percent Growth (MDA-MB-435; Log10 Concentration −8.0 Molar): 102%
- GI50 (M14): 4.33 µM
- pIC50 (M14): 4.03
- TGI (UACC-257 [3]): 2.02E−5 Molar
- Percent Growth (UACC-257 [3]; [9]): −24%
- Percent Growth (UACC-257 [3]; [10]): 11%
- Percent Growth (UACC-257 [3]; [11]): 104%
- Percent Growth (UACC-257 [3]; [12]): 100%
- Percent Growth (UACC-257 [3]; [13]): 97%
- TGI (OVCAR-5 [4]): 2.52E−5 Molar
- Percent Growth (OVCAR-5 [4]; [9]): −43%
- Percent Growth (OVCAR-5 [4]; [10]): 29%
- Percent Growth (OVCAR-5 [4]; [11]): 103%
- Percent Growth (OVCAR-5 [4]; [12]): 99%
- Percent Growth (OVCAR-5 [4]; [13]): 96%
- TGI (788-0): 3.71E−6 Molar
- Percent Growth (788-0; Log10 Concentration −4.0 Molar): −80%
- Percent Growth (788-0; Log10 Concentration −5.0 Molar): −83%
- Percent Growth (788-0; Log10 Concentration −6.0 Molar): 110%
- Percent Growth (788-0; Log10 Concentration −7.0 Molar): 113%
- Percent Growth (788-0; Log10 Concentration −8.0 Molar): 103%
- GI50 (HOP-92 [5]): 15.5 µM
- pIC50 (HOP-92 [5]): 4.01
- TGI (KM12): 4.41E−6 Molar
- Percent Growth (KM12; [9]): −74%
- Percent Growth (KM12; [10]): −66%
- Percent Growth (KM12; [11]): 107%
- Percent Growth (KM12; [12]): 111%
- Percent Growth (KM12; [13]): 104%
- GI50 (SF-268): 3.58 µM
- pIC50 (SF-268): < 4.00
- TGI (NCI-H460 [6]): 3.49E−6 Molar
- Percent Growth (NCI-H460 [6]; [9]): −75%
- Percent Growth (NCI-H460 [6]; [10]): −74%
- Percent Growth (NCI-H460 [6]; [11]): 88%
- Percent Growth (NCI-H460 [6]; [12]): 93%
- Percent Growth (NCI-H460 [6]; [13]): 104%
- TGI (BT-549): 9.18E−6 Molar
- Percent Growth (BT-549; [9]): −35%
- Percent Growth (BT-549; [10]): −10%
- Percent Growth (BT-549; [11]): 103%
- Percent Growth (BT-549; [12]): 112%
- Percent Growth (BT-549; [13]): 113%
- GI50 (A549/ATCC): 2.9 µM
- pIC50 (A549/ATCC): < 4.00
- GI50 (OVCAR-5 [7]): 5.24 µM
- pIC50 (OVCAR-5 [7]): < 4.00
- TGI (IGROV1): 7.76E−6 Molar
- Percent Growth (IGROV1; [9]): −39%
- Percent Growth (IGROV1; [10]): −12%
- Percent Growth (IGROV1; [11]): 98%
- Percent Growth (IGROV1; [12]): 99%
- Percent Growth (IGROV1; [13]): 100%
- TGI (HOP-92 [8]): 5.16E−6 Molar
- Percent Growth (HOP-92 [8]; [9]): −50%
- Percent Growth (HOP-92 [8]; [10]): −25%
- Percent Growth (HOP-92 [8]; [11]): 69%
- Percent Growth (HOP-92 [8]; [12]): 80%
- Percent Growth (HOP-92 [8]; [13]): 85%
- GI50 (COLO 205): 1.59 µM
- pIC50 (COLO 205): 5.22
- TGI (NCI/ADR-RES): 2.07E−5 Molar
- Percent Growth (NCI/ADR-RES; Log10 Concentration −4.0 Molar): −21%
- Percent Growth (NCI/ADR-RES; Log10 Concentration −5.0 Molar): 10%
- Percent Growth (NCI/ADR-RES; Log10 Concentration −6.0 Molar): 103%
- Percent Growth (NCI/ADR-RES; Log10 Concentration −7.0 Molar): 109%
- Percent Growth (NCI/ADR-RES; Log10 Concentration −8.0 Molar): 105%
- GI50 (CAKI-1): 2.7 µM
- pIC50 (CAKI-1): < 4.00
